From PMC10233092, “Selective Janus kinase 1 inhibition resolves inflammation and restores hair growth offering a viable treatment option for alopecia areata” (Skin Health and Disease, 2023)
≈ marks a conversion by molar mass, not a printed value. Where “and” joins values, the source holds several entries; their conditions need not be identical. Equal values may be shown once.

Experiments:
IL‐4, STAT6‐Luc = test: IL-4-induced JAK-STAT6-luciferase assay in U937 monocytes; format: cell-based; conditions: Homo sapiens, U-937, interleukin at EC80
IL‐13, STAT6‐Luc = test: IL-13-induced JAK-STAT6-luciferase assay in U937 monocytes; format: cell-based; conditions: Homo sapiens, U-937, interleukin at EC80
[1] = Solubility in phosphate buffer; format: physicochemical; conditions: pH 7.4, aqueous buffer
Source text: TABLE 1 In vitro potency and selectivity of JAK inhibitors | column: Solubility (μM) ^c

[2] = tested on: Human Peripheral Blood Mononuclear Cells (PBMCs); test: Cytokine release from anti-CD3-stimulated human PBMCs; format: cell-based; conditions: during stimulation with anti‐CD3, 40–48 h
Description: Human Peripheral Blood Mononuclear Cells (PBMCs) were isolated by Sepmate technique (Stemcell Technologies) from heparinized venous blood from healthy volunteers. Primary human CD8^+ T‐cells were further isolated using a CD8^+ T cell Isolation Kit according to protocol (Miltenyi Biotec). Experiments were approved by the local ethical committee in Gothenburg (033‐11).
Soluble anti‐CD28 were added to the CD8^+ cultures to facilitate co‐stimulation. After 40–48 h, supernatants were harvested for mediator analysis and the cells were washed and resuspended in RLT buffer (Qiagen) for RNA isolation.
Analysis of human cytokine panels was carried out using a Luminex assay kit from Merck Millipore (Cat# HCYTMAG‐60K‐PX41) and Mesoscale Discovery (MSD) immunoassay kits (Cat# K211AEB‐2 and K15049D) as recommended in the respective supplier protocols.

AA mice = tested on: AA mice; design: method as in PMID 25129481; conditions: 12 weeks of treatment, 3 months follow up; cited from earlier work
[3] = Plasma and skin exposure in treated AA mice; conditions: 3% cream topically, one hour after application

| IC50 (IL‐4, STAT6‐Luc) | IC50 (IL‐13, STAT6‐Luc) | solubility [1] | unbound plasma exposure over IC50 [3] | SMILES | release of IL‐1RA from PBMCs [2] | remission after treatment (AA mice) |
| --- | --- | --- | --- | --- | --- | --- |
| 110 nM | 82 nM | 678 µM (≈ 208 µg/mL) |  | N#CC[C@H](C1CCCC1)n1cc(-c2ncnc3[nH]ccc23)cn1 [Ruxolitinib, reference compound] | dramatically increased | induced stable remission |
|  |  | > 1000 µM | 3–7 fold IC50 and 5 fold IC50 | C[C@@H]1CCN(C(=O)CC#N)C[C@@H]1N(C)c1ncnc2[nH]ccc12 [Tofacitinib, reference compound] | dramatically increased | induced stable remission |
